Data as given in patent US20020099070A1, “Dihydronaphthyridine potassium channel openers” (priority 2000, published 2002).
Each block holds one molecule with its values, some of them ahead of it.

Test system: primary cultured guinea-pig urinary bladder (GPB) cells
Test: Membrane hyperpolarization (MHP) assay, DiBAC(4)3 / FLIPR
Type: cell-based
Details: for Emax / Maximal Response (% P1075): maximal steady-state hyperpolarization, normalized to 10 μM P1075 = 100%; for Emax: read-out: Maximal Response (% P1075); for EC50: membrane hyperpolarization in GPB cells
Experimental: Compounds were evaluated for potassium channel opening activity using primary cultured guinea-pig urinary bladder (GPB) cells.
For the preparation of urinary bladder smooth muscle cells, urinary bladders were removed from male guinea-pigs (Hartley, Charles River, Wilmington, Mass.) weighing 300-400 g and placed in ice-cold Ca^2+-free Krebs solution (Composition, mM: KCl, 2.7; KH2PO4, 1.5; NaCl, 75; Na2HPO4, 9.6; Na2HPO4.7H2O, 8; MgSO4, 2; glucose, 5; HEPES, 10; pH 7.4). Cells were isolated by enzymatic dissociation as previously described with minor modifications in Klockner, U. and Isenberg, G., Pflugers Arch. 1985, 405, 329-339, hereby incorporated by reference. The bladder was cut into small sections and incubated in 5 mL of the Kreb's solution containing 1 mg/mL collagenase (Sigma, St. Louis, Mo.) and 0.2 mg/mL pronase (Calbiochem, La Jolla, Calif.) with continuous stirring in a cell incubator for 30 minutes. The mixture was then centrifuged at 1300×g for 5 minutes, and the pellet resuspended in Dulbecco's PBS (GIBCO, Gaithersburg, Md.) and recentrifuged to remove residual enzyme. The cell pellet was resuspended in 5 mL growth media (composition: Dulbecco's modified Eagle's medium supplemented with 10% fetal bovine serum, 100 units/mL penicillin, 100 units/mL streptomycin and […] amphotericin B) and further dissociated by pipetting the suspension through a flame-polished Pasteur pipette and passing it through a polypropylene mesh membrane (Spectrum, Houston, Tex.). The cell density was adjusted to 100,000 cells/mL by resuspension in growth media. Cells were plated in clear-bottomed black 96-well plates (Packard) for membrane potential studies at a density of 20,000 cells/well and maintained in a cell incubator with 90% air: 10% CO2 until confluent. Cells were confirmed to be of smooth muscle type by cytoskeletal staining using a monoclonal mouse anti human-α-smooth muscle actin (Biomeda, Foster City, Calif.).
Functional activity at potassium channels was measured by evaluating changes in membrane potential using the bis-oxonol dye DiBAC(4)3 (Molecular Probes) in a 96-well cell-based kinetic assay system, Fluorescent Imaging Plate Reader (FLIPR) (K. S. Schroeder et al., J. Biomed. Screen., v. 1 pp. 75-81 (1996)), hereby incorporated by reference. DiBAC(4)3 is an anionic potentiometric probe which partitions between cells and extracellular solution in a membrane potential-dependent manner. With increasing membrane potential (for example, K^+ depolarization), the probe fuither partitions into the cell; this is measured as an increase in fluorescence due to dye interaction with intracellular lipids and proteins. Conversely, decreasing membrane potential (hyperpolarization by potassium channel openers) evokes a decrease in fluorescence.
Confluent guinea-pig urinary bladder cells cultured in black clear-bottomed 96-well plates were rinsed twice with […] assay buffer (composition, mM: HEPES, 20; NaCl, 120; KCl, 2; CaCl2, 2; MgCl2, 1; glucose, 5; pH 7.4 at 25° C.) containing 5 μM DiBAC(4)3 and incubated with […] of the buffer in a cell incubator for 30 minutes at 37° C. to ensure dye distribution across the membrane. After recording the baseline fluorescence for 5 minutes, the reference or test compounds, prepared at 10 times the concentration in the assay buffer, were added directly to the wells. Changes in fluorescence were monitored for an additional 25 minutes. Hyperpolarization responses were corrected for any background noise and were normalized to the response observed with 10 μM of the reference compound P1075, N″-cyano-N-(tert-pentyl)-N′-(3-pyridinyl)guanidine, which was assigned as 100%. P1075 is a potent opener of smooth muscle KATP channels (Quast et al., Mol. Pharmacol., v. 43 pp. 474-481 (1993)) and was prepared using the procedures described in (Manley, J. Med. Chem. (1992) 35, 2327-2340), hereby incorporated by reference. […]

Compound: O=C1NCCC2=C1C(c1ccc(F)c(Br)c1)C(C(=O)c1ccccc1)=C(c1ccccc1)N2 (stereo not drawn) [Example 20, 3-benzoyl-4-(3-bromo-4-fluorophenyl)-2-phenyl-4,6,7,8-tetrahydro[1,6]naphthyridin-5(1H)-one]
Emax (Cavia porcellus): 51%
EC50 (Cavia porcellus): 18000 nM

Compound: CC(=O)C1=C(C)NC2=C(C(=O)NCC2)C1c1ccc(F)c(Br)c1 (stereo not drawn) [Example 17, 3-acetyl-4-(3-bromo-4-fluorophenyl)-2-methyl-4,6,7,8-tetrahydro[1,6]naphthyridin-5(1H)-one]
Emax (Cavia porcellus): 45%
EC50 (Cavia porcellus): 14000 nM

Compound: CC1=C(C#N)C(c2ccc(Cl)c(Cl)c2)C2=C(CCNC2=O)N1 (stereo not drawn) [Example 8, 4-(3,4-dichlorophenyl)-3-cyano-2-methyl-4,6,7,8-tetahydro[1,6]naphthyridin-5(1H)-one]
Maximal Response (% P1075): 97 % P1075
EC50: 38 nM

Compound: CC1=C(C#N)C(c2ccc(Cl)c(C(F)(F)F)c2)C2=C(CCNC2=O)N1 (stereo not drawn) [Example 16, 4-[4-chloro-3-(trifluoromethyl)phenyl]-3-cyano-2-methyl-4,6,7,8-tetrahydro[1,6]naphthyridin-5(1H)-one]
Emax (Cavia porcellus): 109%
EC50 (Cavia porcellus): 180 nM

Compound: CC1=C(C#N)C(c2cc(F)c(F)cc2F)C2=C(CCNC2=O)N1 (stereo not drawn) [Example 14, 4-(2,4,5-trifluorophenyl)-3-cyano-2-methyl-4,6,7,8-tetrahydro[1,6]naphthyridin-5(1H)-one]
Emax (Cavia porcellus): 84%
EC50 (Cavia porcellus): 2600 nM

Compound: CC1=C(C#N)C(c2ccc(F)c(Br)c2)C2=C(CCOC2=O)N1 (stereo not drawn) [Example 28, 4-(3-bromo-4-fluorophenyl)-3-cyano-2-methyl-1,4,7,8-tetrahydro-5H-pyrano[4,3-b]pyridin-5-one]
Emax (Cavia porcellus): 82%
EC50 (Cavia porcellus): 22 nM

Compound: CC1=C(C#N)C(c2cccc([N+](=O)[O-])c2)C2=C(CCNC2=O)N1 (stereo not drawn) [Example 9, 4-(3-nitrophenyl)-3-cyano-2-methyl-4,6,7,8-tetrahydro[1,6]naphthyridin-5(1H)-one]
Emax (Cavia porcellus): 106%
EC50 (Cavia porcellus): 620 nM

Compound: COC(=O)C1=C(C)NC2=C(C(=O)OCC2)C1c1ccc(F)c(Br)c1 (stereo not drawn) [Example 29, 4-(3-bromo-4-fluorophenyl)-3-methoxycarbonyl-2-methyl-1,4,7,8-tetrahydro-5H-pyrano[4,3-b]pyridin-5-one]
Emax (Cavia porcellus): 81%
EC50 (Cavia porcellus): 19 nM

Compound: CC1=C(C#N)C(c2ccc(Cl)c([N+](=O)[O-])c2)C2=C(CCNC2=O)N1 (stereo not drawn) [Example 10, 4-(4-chloro-3-nitrophenyl)-3-cyano-2-methyl-4,6,7,8-tetrahydro[1,6]naphthyridin-5(1H)-one]
Emax (Cavia porcellus): 110%
EC50 (Cavia porcellus): 140 nM

Compound: CC1=C(C#N)C(c2ccc(F)c(C(F)(F)F)c2)C2=C(CCNC2=O)N1 (stereo not drawn) [Example 13, 4-[4-fluoro-3-(trifluoromethyl)phenyl]-3-cyano-2-methyl-4,6,7,8-tetrahydro[1,6]naphthyridin-5(1H)-one]
Emax (Cavia porcellus): 99%
EC50 (Cavia porcellus): 350 nM

Compound: CC1=C(C#N)C(c2ccc(F)c(Br)c2)C2=C(CCNC2=O)N1 (racemic) [Example 1, 4-(3-bromo-4-fluorophenyl)-3-cyano-2-methyl-4,6,7,8-tetrahydro[1,6]naphthyridin-5(1H)-one]
Emax (Cavia porcellus): 83%
EC50 (Cavia porcellus): 52 nM

Compound: CC(=O)C1=C(C)Nc2cc[nH]c(=O)c2C1c1ccc(F)c(Br)c1 (racemic) [Example 18, 3-acetyl-4-(3-bromo-4-fluorophenyl)-2-methyl-4,6-dihydro[1,6]naphthyridin-5(1H)-one]
Emax (Cavia porcellus): 83%
EC50 (Cavia porcellus): 740 nM

Compound: CC1=C(C#N)C(c2ccc(F)c(Cl)c2)C2=C(CCNC2=O)N1 (stereo not drawn) [Example 15, 4-(3-chloro-4-fluorophenyl)-3-cyano-2-methyl-4,6,7,8-tetrahydro[1,6]naphthyridin-5(1H)-one]
Emax (Cavia porcellus): 102%
EC50 (Cavia porcellus): 110 nM

Compound: CC1=C(C#N)C(c2ccc(F)c(F)c2)C2=C(CCNC2=O)N1 (stereo not drawn) [Example 12, 4-(3,4-difluorophenyl)-3-cyano-2-methyl-4,6,7,8-tetrahydro[1,6]naphthyridin-5(1H)-one]
Emax (Cavia porcellus): 89%
EC50 (Cavia porcellus): 890 nM

Further lines, with some results ahead:

EC50 (Cavia porcellus): 39 nM
Compound: COC(=O)C1=C(C)Nc2ccnc(Cl)c2C1c1ccc(F)c(Br)c1 (stereo not drawn) [Example 31, 4-(3-bromo-4-fluorophenyl)-5-chloro-3-(methoxycarbonyl)-2-methyl-1,4-dihydro[1,6]naphthyridine]
Emax (Cavia porcellus): 93%

EC50 (Cavia porcellus): 4 nM
Compound: CC1=C(C#N)C(c2ccc(F)c(Br)c2)c2c(ccnc2Cl)N1 (racemic) [Example 32, 4-(3-bromo-4-fluorophenyl)-5-chloro-3-cyano-2-methyl-1,4-dihydro[1,6]naphthyridine]
Emax (Cavia porcellus): 91%

EC50 (Cavia porcellus): 620 nM
Compound: CC(=O)C1=C(C)Nc2cc[nH]c(=O)c2C1c1ccc(F)c(Br)c1 (stereo not drawn) [Example 19, 3-acetyl-4-(3-bromo-4-fluorophenyl)-2-methyl-4,6-dihydro[1,6]naphthyridin-5(1H)-one]
Emax (Cavia porcellus): 104%

EC50 (Cavia porcellus): 23 nM
Compound: CC1=C(C#N)C(c2ccc(Br)c(Br)c2)C2=C(CCNC2=O)N1 (stereo not drawn) [Example 11, 4-(3,4-dibromophenyl)-3-cyano-2-methyl-4,6,7,8-tetrahydro[1,6]naphthyridin-5(1H)-one]
Emax (Cavia porcellus): 105%

EC50 (Cavia porcellus): 13 nM
Compound: CC1=C(C#N)C(c2ccc(F)c(Br)c2)c2c(cc[nH]c2=O)N1 (racemic) [Example 4, 4-(3-bromo-4-fluorophenyl)-3-cyano-2-methyl-4,6-dihydro[1,6]naphthyridin-5(1H)-one]
Emax (Cavia porcellus): 92%

EC50 (Cavia porcellus): 4000 nM
Compound: COC(=O)C1=C(C)NC2=C(C(=O)OCC2)C1c1ccc(F)c(C(F)(F)F)c1 (stereo not drawn) [Example 30, 4-[4-fluoro-3-(trifluoromethyl)phenyl]-3-methoxycarbonyl-2-methyl-1,4,7,8-tetrahydro-5H-pyrano[4,3-b]pyridin-5-one]
Emax (Cavia porcellus): 52%

EC50: 2500 nM
Compound: CC1=C(C#N)C(c2ccc(F)c(Br)c2)C2=C(CCNC2=O)N1 (stereo not drawn) [Example 3, 4-(3-bromo-4-fluorophenyl)-3-cyano-2-methyl-4 6,7,8-tetrahydro[1,6]naphthyridin-5(1H)-one]
Maximal Response (% P1075): 78 % P1075
